Reference: US10730863B2, “Bridged bicyclic compounds as farnesoid X receptor modulators” (BRISTOL-MYERS SQUIBB COMPANY, priority 2017, dated 2020)

Target: FXR (Homo sapiens (Human), UniProt Q96RI1)
Assay: FXR EC50 (FXR agonist activity reported with each example)
Assay type: cell-based

Chain of FXR (Q96RI1 262-486): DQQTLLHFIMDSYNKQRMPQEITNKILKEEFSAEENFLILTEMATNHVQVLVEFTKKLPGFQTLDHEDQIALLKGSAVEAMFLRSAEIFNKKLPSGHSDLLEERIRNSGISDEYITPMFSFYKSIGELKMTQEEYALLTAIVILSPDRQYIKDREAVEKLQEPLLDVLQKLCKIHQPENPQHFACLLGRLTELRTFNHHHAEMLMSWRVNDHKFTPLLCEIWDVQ

SMILES	EC50 [nM]
O=C(O)c1cc(F)c2nc(OCC34CCC(OCc5c(-c6c(Cl)cccc6Cl)noc5C5CC5)(CC3)CC4)sc2c1 [Example 83, 2-((4-((5-cyclopropyl-3-(2,6-dichlorophenyl)isoxazol-4-yl)methoxy)bicyclo[2.2.2]octan-1-yl)methoxy)-4-fluorobenzo[d]thiazole-6-carboxylic acid]	18
O=C(O)c1ccc(C2CC2)c2nc(C34CCC(OCc5c(C(C6CC6)C6CC6)noc5C5CC5)(CC3)CC4)ccc12 [Example 424]	500
COc1cc(C(=O)N(C)C)nc2ccc(C#CC34CCC(OCc5c(-c6c(Cl)cncc6Cl)noc5C5CC5)(CC3)CC4)cc12 [Example 522, 6-((4-((5-cyclopropyl-3-(3,5-dichloropyridin-4-yl)isoxazol-4-yl)methoxy)bicyclo[2.2.2]octan-1-yl)ethynyl)-4-methoxy-N,N-dimethylquinoline-2-carboxamide]	52
O=C(O)c1ccc(-c2noc(C34CCC(OCc5c(-c6c(Cl)cncc6Cl)noc5C5CC5)(CC3)CO4)n2)cc1 [Example 218]	160
COC(=O)c1cccc(NC(=O)C23CCC(C=Cc4c(-c5c(Cl)cccc5Cl)noc4C4CC4)(CC2)CC3)c1 [Example 187]	3000
O=C(O)c1cc(OCC23CCC(/C=C/c4c(-c5c(Cl)cncc5Cl)noc4C4CC4)(CC2)CO3)cc(C(F)(F)F)c1 [Example 468, (E)-3-((4-(2-(5-cyclopropyl-3-(3,5-dichloropyridin-4-yl)isoxazol-4-yl)vinyl)-2-oxabicyclo[2.2.2]octan-1-yl)methoxy)-5-(trifluoromethyl)benzoic acid]	70
O=C(O)c1cc(C(F)(F)F)c2cc(CCC34CCC(OCc5c(-c6c(Cl)cncc6Cl)noc5C5CC5)(CC3)CC4)ccc2n1 [Example 430, 6-(2-(4-((5-cyclopropyl-3-(3,5-dichloropyridin-4-yl)isoxazol-4-yl)methoxy)bicyclo[2.2.2]octan-1-yl)ethyl)-4-(trifluoromethyl)quinoline-2-carboxylic acid]	24
O=C(O)c1cc(-c2noc(C34CCC(OCc5c(-c6c(Cl)cncc6Cl)noc5C5CC5)(CC3)CC4)n2)cc(OCC(F)(F)F)n1 [Example 263, 4-(5-(4-((5-cyclopropyl-3-(3,5-dichloropyridin-4-yl)isoxazol-4-yl)methoxy)bicyclo[2.2.2]octan-1-yl)-1,2,4-oxadiazol-3-yl)-6-(2,2,2-trifluoroethoxy)picolinic acid]	95
COc1cncc(Cl)c1-c1noc(C2CC2)c1/C=C/C12CCC(c3ccc(C(C)(C)C(=O)O)cc3)(CC1)OC2 [Example 483, (E)-2-(4-(4-(2-(3-(3-chloro-5-methoxypyridin-4-yl)-5-cyclopropylisoxazol-4-yl)vinyl)-2-oxabicyclo[2.2.2]octan-1-yl)phenyl)-2-methylpropanoic acid]	4500
O=C(O)c1cc(F)c2nc(OCC34CCC(C=Cc5c(-c6c(Cl)cccc6Cl)noc5C5CC5)(CC3)CC4)sc2c1 [Example 191]	58
CC(C)(C#N)c1ccc(C23CCC(/C=C/c4c(-c5ccccc5C(F)(F)F)noc4C4CC4)(CC2)CO3)cc1 [Example 476, (E)-2-(4-(4-(2-(5-cyclopropyl-3-(2-(trifluoromethyl)phenyl)isoxazol-4-yl)vinyl)-2-oxabicyclo[2.2.2]octan-1-yl)phenyl)-2-methylpropanenitrile]	690
O=C(O)c1ccc(OCC23CCC(OCc4c(-c5c(Cl)cncc5Cl)noc4C4CC4)(CC2)CC3)c(C(F)(F)F)c1 [Example 320]	410
CCOc1cc(OCC23CCC(OCc4c(-c5c(Cl)cncc5Cl)noc4C4CC4)(CC2)CC3)cnc1C(N)=O [Example 295]	230
O=C(O)c1ccc2nc(C34CCC(/C=C/c5c(-c6c(Cl)cncc6Cl)noc5C5CC5)(CC3)CC4)sc2c1 [Example 505, (E)-2-(4-(2-(5-cyclopropyl-3-(3,5-dichloropyridin-4-yl)isoxazol-4-yl)vinyl)bicyclo[2.2.2]octan-1-yl)benzo[d]thiazole-6-carboxylic acid]	88
COC(=O)c1ccc(-c2noc(C34CCC(COCc5c(-c6c(Cl)cccc6Cl)noc5C5CC5)(CC3)CC4)n2)cc1 [Example 156]	1700
CS(=O)(=O)NC(=O)c1cc(-c2noc(C34CCC(/C=C/c5c(-c6c(Cl)cncc6Cl)noc5C5CC5)(CC3)CC4)n2)cc(C(F)(F)F)c1 [Example 440, (E)-3-(5-(4-(2-(5-cyclopropyl-3-(3,5-dichloropyridin-4-yl)isoxazol-4-yl)vinyl)bicyclo[2.2.2]octan-1-yl)-1,2,4-oxadiazol-3-yl)-N-(methylsulfonyl)-5-(trifluoromethyl)benzamide]	400
COC(=O)c1ccc(-c2noc(C34CCC(C=Cc5c(-c6c(Cl)cccc6Cl)noc5C5CC5)(CC3)C4)n2)cc1 [Intermediate 226C, methyl 4-(5-(4-(2-(5-cyclopropyl-3-(2,6-dichlorophenyl)isoxazol-4-yl)vinyl)bicyclo[2.2.1]heptan-1-yl)-1,2,4-oxadiazol-3-yl)benzoate]	2500
O=C(O)c1cc(C23CCC(COCc4c(-c5c(Cl)cccc5Cl)noc4C4CC4)(CC2)CO3)ccc1F [Example 202]	390
O=C(O)c1cc(C2CC2)c2cc(OCC34CCC(OCc5c(-c6c(Cl)cncc6Cl)noc5C5CC5)(CC3)CC4)cc(F)c2n1 [Example 311, 4-cyclopropyl-6-((4-((5-cyclopropyl-3-(3,5-dichloropyridin-4-yl)isoxazol-4-yl)methoxy)bicyclo[2.2.2]octan-1-yl)methoxy)-8-fluoroquinoline-2-carboxylic acid]	9
O=C(O)c1cc(OCC(CO)CCl)c2cc(OCC34CCC(OCc5c(-c6c(Cl)cncc6Cl)noc5C5CC5)(CC3)CC4)ccc2n1 (stereo not drawn) [Example 356]	110
COc1c(C#CC23CCC(OCc4c(-c5c(Cl)cncc5Cl)noc4C4CC4)(CC2)CC3)cccc1C(=O)O [Example 383]	820
O=C(O)c1ncc(OCC23CCC(OCc4c(-c5c(Cl)cncc5Cl)noc4C4CC4)(CC2)CC3)c2ccccc12 [Example 292, 4-((4-((5-cyclopropyl-3-(3,5-dichloropyridin-4-yl)isoxazol-4-yl)methoxy)bicyclo[2.2.2]octan-1-yl)methoxy)isoquinoline-1-carboxylic acid]	9
CC(C)COc1cc(C(=O)O)nc2ccc(OCC34CCC(OCc5c(-c6c(Cl)cncc6Cl)noc5C5CC5)(CC3)CC4)cc12 [Example 355]	18
O=C(O)c1cc(F)c2nc(C#CC34CCC(OCc5c(-c6c(Cl)cncc6Cl)noc5C5CC5)(CC3)CC4)sc2c1 [Example 133, 2-((4-((5-cyclopropyl-3-(3,5-dichloropyridin-4-yl)isoxazol-4-yl)methoxy)bicyclo[2.2.2]octan-1-yl)ethynyl)-4-fluorobenzo[d]thiazole-6-carboxylic acid]	180
Cc1ccc(C(=O)O)c2ccc(C34CCC(OCc5c(-c6c(Cl)cncc6Cl)noc5C5CC5)(CC3)CC4)nc12 [Example 389]	6
O=C(O)c1ccc(-c2nc(C34CCC(OCc5c(-c6ccccc6OC(F)(F)F)noc5C5CC5)(CC3)CC4)no2)cc1 [Example 57]	650
O=C(O)c1c(OC2CCC2)cc(Cl)c2nc(C34CCC(OCc5c(-c6c(Cl)cncc6Cl)noc5C5CC5)(CC3)CC4)ccc12 [Example 429]	4
